From patent publication US7323433B2, “R-(-)-1-[2-(7-chlorobenzo[b]thiopen-3-yl-methoxy)-2-(2,4-dichlorophenyl)-ethyl]-1H-imidazole” (Ferrer Internacional, S.A., priority 2002, dated 2008) come the findings set out here.

Format in all cases: cell-based
For one test, the system named is Malassezia spp. Put plainly: MIC by modified NCCLS M27-A microdilution, Malassezia spp. The following applies: 11 strains, geometric mean, MIC = lowest concentration giving 50% inhibition of growth. On the procedure:
(§1) Minimal Inhibitory Concentrations (MICs) were determined by using a modification of the microdilution method M27-A recommended by the National Committee for Clinical Laboratory Standards in RPMI-1640 medium (Sigma) supplemented with glucose to a concentration of 2% and adjusted to pH 7.0 with 0.165 M morpholine propanesulfonic (MOPS) acid buffer. Serial twofold dilutions were made in modified RPMI-1640 medium from stock solutions. MICs were defined as the lowest drug concentrations resulting in 50% inhibition of growth compared to that of the growth control. […] The number of strains used in the experiments is given in parenthesis below the name of each microorganism.
(In broth dilution the organism is exposed to a series of concentrations in liquid medium.)

Another test concerns Dermatophytes. In words: MIC by modified NCCLS M27-A microdilution, Dermatophytes. The following applies: 17 strains, geometric mean, MIC = lowest concentration giving 50% inhibition of growth. On the procedure: as §1
The test system of a further test is Filamentous fungi. In words: MIC by modified NCCLS M27-A microdilution, Filamentous fungi. The following applies: 11 strains, geometric mean, MIC = lowest concentration giving 50% inhibition of growth. The method, then: as §1
The subject of the next test is fungi and yeasts. In words: Microbiological activity (MIC) overall, comparison of enantiomers and racemate. The method, then: as §1
For a further test, the system named is Candida spp. In words: MIC by modified NCCLS M27-A microdilution, Candida spp. Particulars: 42 strains, geometric mean, MIC = lowest concentration giving 50% inhibition of growth. The method, then: as §1
Where [1] appears, read: RPMI-1640 2% glucose pH 7.0, read-out: MIC.

Values after ≈ are worked out from the molar mass of the structure shown. Like-named read-outs stand apart in the source and are kept apart here.

`Clc1ccc([C@@H](Cn2ccnc2)OCc2csc3c(Cl)cccc23)c(Cl)c1.O=[N+]([O-])O` (single isomer, unassigned) [S-(+)enantiomer]: the MIC against Malassezia spp (RPMI-1640 2% glucose pH 7.0) came out at 10.96 µg/mL; with Dermatophytes (RPMI-1640 2% glucose pH 7.0) it was 0.17 µg/mL; against Filamentous fungi (RPMI-1640 2% glucose pH 7.0), 16 µg/mL; in the test on Candida spp (RPMI-1640 2% glucose pH 7.0) it was 3.217 µg/mL. Further, in the test on fungi and yeasts (in words, from Table 1), the “microbiological activity in comparison with R-(−)sertaconazole” value was “much less active”.

`Clc1ccc(C(Cn2ccnc2)OCc2csc3c(Cl)cccc23)c(Cl)c1` (racemic) [Racemate, 1-[2-(7-chlorobenzo[b]thiophen-3-yl-methoxy)-2-(2,4-dichlorophenyl)-ethyl]-1H-imidazole]: the MIC was 1.37 µg/mL (≈ 3.13 µM) with Malassezia spp (setting [1]), 0.08 µg/mL (≈ 0.183 µM) with Dermatophytes (setting [1]), 3.11 µg/mL (≈ 7.1 µM) in the test with Filamentous fungi (setting [1]) and 0.256 µg/mL (≈ 0.585 µM) in the test on Candida spp (setting [1]).

For `Clc1ccc([C@H](Cn2ccnc2)OCc2csc3c(Cl)cccc23)c(Cl)c1.O=[N+]([O-])O` [R-(−)enantiomer, (R)-(−)-1-[2-(7-chlorobenzo[b]thiophen-3-yl-methoxy)-2-(2,4-dichlorophenyl)-ethyl]-1H-imidazole mononitrate], the MIC with Malassezia spp (setting [1]) stood at 0.64 µg/mL; with Dermatophytes (setting [1]) it was 0.04 µg/mL; with Filamentous fungi (setting [1]) it was 1.76 µg/mL; in the test on Candida spp (setting [1]), 0.125 µg/mL. For the same compound, the “activity compared with the racemic mixture” value in the test with fungi and yeasts (against both fungi and yeasts, as shown in Table 1) is “about 2 times”.

One may read the MIC as the lowest concentration that inhibits growth of the organism.
